Data: patent US20210000988A1, “PHARMACEUTICAL COMPOSITION CONTAINING 211AT-LABELED AMINO ACID DERIVATIVE, AND METHOD FOR PRODUCING SAID PHARMACEUTICAL COMPOSITION” (OSAKA UNIVERSITY, priority 2018, published 2021)

Columns and labels:
[1] = test system: human pancreatic cancer cell line (PANC-1); experiment: Cellular uptake / accumulation in cancer cells (radiation dose remaining in the cells); assay type: cell-based
Protocol: A human pancreatic cancer cell line (PANC-1) was treated with ^211At-AAMT and cultured for a predetermined time. Then, the cells were washed to remove unincorporated ^211At-AAMT. The cellular uptake of ^211At-AAMT was measured from the radiation dose remaining in the cells.
Further, an effect of ascorbic acid on the cellular accumulation of ^211At-AAMT was also examined. The measurement result of the radiation dose in the human pancreatic cancer cell line in the absence and presence of ascorbic acid is shown in FIG. 5.

[2] = test system: human pancreatic cancer cell line (PANC-1); experiment: Cell-killing effect (cell survival rate); assay type: cell-based; details: PANC-1 cells
Text: 4. Examination of cell-killing effect of ^211At-AAMT A cell survival rate of the human pancreatic cancer cell line (PANC-1) administered with ^211At-AAMT under the same conditions as in Example 3 is shown in FIG. 6. […] On the other hand, the cellular uptake of ^211At-AAMT was reduced in the presence of the inhibitor BCH or methyltyrosine.

[3] = In vitro stability by thin-layer chromatography (TLC), with and without sodium ascorbate; assay type: physicochemical
Text: The stability of ^211At-AAMT synthesized in Example 1 was compared in the presence and absence of sodium ascorbate using thin-layer chromatography (TLC).

[4] = In vivo stability: TLC of blood and urine after intravenous injection in normal rats; details: ascorbic acid 1% final concentration, after one hour
Protocol: ^211At-AAMT to which ascorbic acid was added at a final concentration of 1% was intravenously injected in normal rats, and, after one hour, blood and urine were collected and analyzed by thin-layer chromatography (TLC). As a thin layer plate, silica gel G60F254 (Merck KGaA) was used, and, as a development solvent, a mixture of butanol:water:acetic acid (4:1:1) was used (Nacalai Tesque, Inc.). The thin layer plate after development was analyzed by using a bioimaging analysis apparatus (Typhoon 7000, GE Healthcare) (FIG. 2). […] That is, it was shown that ^211At-AAMT to which ascorbic acid was added could stably exist in the living body without being metabolized or degraded.

[5] = Effect of ascorbic acid on biodistribution in normal mice (organ radioactivity, gamma counter); assay type: in vivo, ddY mice; details: intravenous, one hour, 1% ascorbic acid addition group compared with ascorbic acid free group
Text: Next, an effect of ascorbic acid on biodistribution of ^211At-AAMT in the mouse body was compared. ddY mice (male, 5 weeks old) purchased from Japan SLC, Inc. were used after being acclimated for one week (6 weeks old at the time of experiment). ^211At-AAMT with 1% ascorbic acid or without ascorbic acid was intravenously injected in normal mice (N=3), and the mice were dissected after one hour. The organs were all put in polyethylene bags with zipper (A-4, 0.04 mm, SEISANNIPPONSHA Ltd.), and radioactivity of the organs was measured using Wizard^2 gamma counter (PerkinElmer).

[6] = test system: human pancreatic cancer cell line (PANC-1); experiment: Administration to cancer-bearing mouse (tumor size and body weight); assay type: in vivo; details: PANC-1 cancer-bearing mouse, intravenous, 0.6 MBq per mouse, 7 days after administration
Text: A cancer-bearing mouse created by using the human pancreatic cancer cell line (PANC-1) was intravenously administered with ^211At-AAMT at a dose of 0.6 MBq per mouse. A change in the tumor size caused by the administration is shown in FIG. 8(A), while a change in the body weight of the cancer-bearing mouse is shown in FIG. 8(B).

[7] = Image analysis of in vivo localization in the normal rat using a gamma camera
[8] = test system: human pancreas cell line PANC-1; experiment: SPECT imaging in pancreatic cancer (PANC-1) transplanted mice; assay type: in vivo, Balb/c-nu/nu mice; details: PANC-1 transplanted mice (two animals), intravenous, 1 MBq, with 1% ascorbic acid, after 10 minutes
Protocol: Balb/c-nu/nu mice (female, 5 weeks old) purchased from Japan SLC, Inc. were acclimated in a breeding space for one week. A human pancreas cell line PANC-1 (RIKEN cell bank), which was maintained in an RPMI 1640 medium (Sigma-Aldrich) supplemented with 10% fetal bovine serum (Gibco) and 1% antibiotics (100×, FUJIFILM Wako Pure Chemical Corp.), was adjusted to a concentration of 5×10^6 cells/100 μL. Subsequently, the cells were mixed with Matrigel (Growth Factor Reduced, BD) in a 1:1 ratio, and the mixture was transplanted to a subcutaneous region of the hinder back of a mouse using a syringe (FN syringe 27G, Terumo Corp.). Subsequently, after one-month follow-up observation, the mouse having a sufficiently large tumor size was used in the experiment. These pancreatic cancer transplanted mice (animal 1: 25.5 g, animal 2: 30.2 g) were intravenously injected with ^211At-AAMT (with 1% ascorbic acid, at a dose of 1 MBq each), and SPECT imaging was performed after 10 minutes. Imaging was performed using a gamma camera E-Cam (Siemens) (imaging time: 10 minutes, collimator: low energy all purpose, pixel size: 1.2 mm×1.2 mm, matrix: 256×256, zoom: 2-fold, energy window: 79±20%).

[9] = SPECT imaging in normal rats; assay type: in vivo, rats (Wister); details: intravenous, 1 MBq, without ascorbic acid, 20 minutes to 1 hour
Protocol: Normal rats (Wister, 3 months old, male, 3 animals, body weight of 289.8±5.5 g) were intravenously injected with ^211At-AAMT (without ascorbic acid, 1 MBq), and SPECT imaging was performed after from 20 minutes to 1 hour. Imaging was performed using a gamma camera E-Cam (Siemens) (imaging time: 20 minutes, collimator: low energy all purpose, pixel size: 2.4 mm×2.4 mm×2.4 mm (SPECT), matrix: 128×128).

Melanoma cells B16F10 = experiment: Treatment effect on melanoma metastasis to lung (nodule count and body weight); assay type: in vivo, C57BL/6 mice; details: B16F10 transplanted mice, intravenous
Text: C57BL/6 mice (female, 5 weeks old) purchased from Japan SLC, Inc. were used in the experiment after being acclimated in a breeding space for one week. Melanoma cells B16F10 (a high lung-metastatic cell line cloned from B16, RIKEN cell bank) were maintained in a D-MEM medium (high glucose, Sigma-Aldrich) supplemented with 10% fetal bovine serum (Gibco) and 1% antibiotics (100×, FUJIFILM Wako Pure Chemical Corp.). These cells in an amount of 2×10^5 cells were intravenously transplanted in each mouse. On the following day, the mice (N=5) was intravenously injected with ^211At-AAMT (with 1% ascorbic acid) at a dose of 0.0 MBq (control group), 0.1 MBq, or 1 MBq. Fourteen days later, the mice were dissected, and the number of nodules spread to the lung was visually counted. The results of the number of the nodules and a change in the body weight thus obtained were shown in FIG. 11 and FIG. 12, respectively.

SMILES	uptake of ^211At-AAMT under competition with the inhibitor ([1]; PANC-1 cells, competitor added (Comparative example))	cell survival rate with ^211At-AAMT in the presence of the inhibitor ([2]; competitor present)	time in which almost all of the compound was degraded ([3]; in the absence of sodium ascorbate)	stability over time ([3]; in the presence of sodium ascorbate)	radioactive species detected in blood and urine [4]	accumulation in the stomach and the kidney [5]	time at which uptake reached the maximum value ([1]; PANC-1 cells)	increase of cellular uptake in the cancer cells by addition of ascorbic acid ([1]; PANC-1 cells, with versus without ascorbic acid)	accumulation in PANC-1 on addition of ascorbic acid ([1]; ascorbic acid 0.1% versus absence)	cell-killing effect (cell survival rate) ([2]; same conditions as Example 3)	cancer cell-killing activity on addition of ascorbic acid ([2]; with versus without ascorbic acid)	change in body weight [6]	change in tumor size [6]	excretion [7]	in vivo localization of radioactivity [7]	visualization of the thyroid (SPECT) [8]	visualization of the tumor (SPECT) [8]	accumulation of radioactivity (SPECT) [9]	body weight change (Melanoma cells B16F10; 0.1 MBq or 1 MBq with 1% ascorbic acid versus control group)	number of melanoma nodules in the lung (Melanoma cells B16F10; 0.1 MBq or 1 MBq with 1% ascorbic acid versus control, fourteen days later)
NC1(C(=O)O)CC2CCC1C2 (centres unmarked) [BCH, 2-aminobicyclo[2.2.1]heptane-2-carboxylic acid, reference compound]	reduced	a significant reduction in the cell survival rate was not observed	–	–	–	–	–	–	–	–	–	–	–	–	–	–	–	–	–	–
CC(N)(Cc1ccc(O)c([211At])c1)C(=O)O (centres unmarked) [^211At-AAMT]	–	–	about 40 minutes	could stably exist even after the lapse of seven or more hours	only ^211At-AAMT was detected in both the blood and the urine, but free ^211At was not observed	significantly reduced	about 10 minutes	increased about four times	significantly increased	nearly all of the cancer cells could be killed	increased	a substantial reduction of the body weight was not observed	a regression effect of the tumor was obtained	quick excretion of ^211At-AAMT by the kidney	accumulation of the radioactivity was observed in the kidney and its surrounding organs	the thyroid was not visualized	the tumors were clearly visualized in both cases	accumulation of the radioactivity was observed in the thyroid and the stomach in all animals	no difference in the body weight change	decreased more in the group with more doses
